Data as given in paper PMC8032764 (Scientific Reports, 2021).
Where “and” joins values, the source holds several entries; their conditions need not be identical. Equal values may be shown once. Read-outs that look alike come from different tables or passages of the source.

Columns and labels:
GABAA-α5 receptors = experiment: Receptor occupancy estimated from free plasma concentrations, object retrieval; type: in vivo, Macaca fascicularis
Text: Free plasma concentrations were used to estimate receptor occupancy.

[1] = Pharmacokinetics, single intravenous dosing; type: in vivo, NHP, Cynomolgus macaque; conditions: cynomolgus monkey, plasma, 1.0 mg/kg i.v.
rats = experiment: GLP toxicology and safety pharmacology, daily oral administration; type: in vivo, rat; conditions: supra-therapeutic plasma exposures, up to 26 weeks
Dopamine D1 = tested on: T1, Dopamine D1; experiment: Cerep binding; parameters: species or system human; conditions: 10 μM; [3H]SCH 23390; hum. recomb. (CHO)
T1 construct: host or cells: CHO

[2] = Pharmacokinetics, single oral dosing; type: in vivo, Cynomolgus macaque; conditions: cynomolgus monkey, plasma, 10 mg/kg oral, microsuspension, n = 3 male
Description: (§1) Concentrations were chosen to achieve the desired doses by administering 5 mL/kg to rats and 2.5 mL/kg to NHPs via oral gavage.
(§2) The calibration range was from 1.0 to 5000 ng/mL. After protein precipitation with ethanol, the sample solution was injected onto a Gemini C18 trapping column (2 × 10 mm; Phenomenex, Torrance, CA, USA) and polar endogenous compounds and salts were rinsed off. Analytical separation was performed on an Atlantis T3 column (2.1 × 50 mm) (Waters, Milford, MA, USA), using methanol/water containing 0.1% formic acid as mobile phase. A drug analogue was used as an internal standard.

Opioid μ = tested on: T2, Opioid μ; experiment: Cerep binding; parameters: species or system human; conditions: 10 μM; [3H]DAMGO; hum. recomb. (HEK-293)
T2 construct: host or cells: HEK-293

healthy subjects = experiment: Safety in healthy volunteers in the PET and EEG studies; type: in vivo, human
Endothelin ETA = tested on: T3, Endothelin ETA; experiment: Cerep binding; parameters: species or system human; conditions: 10 μM; [125I]endothelin-1; hum. recomb. (CHO)
T3 construct: purchased Eurofins Cerep

human GABAA α5β3γ2 = human GABAA α5β3γ2 (Homo sapiens, UniProt P18507+P31644); experiment: biochemical; conditions: 1 nM [3H]-flumazenil
Description: HEK293-EBNA cells adapted to grow in suspension were transiently transfected with the plasmids containing the desired GABAA receptor subunit cDNAs at α, β, γ, 1:1:2 ratio using XtremeGENE Q2 (Cat. No. 03045595001, Roche Applied Science, RAS, Rotkreuz, Switzerland) as previously described. GABAA α1β2γ2, α2β3γ2, α3β3γ2, α4β3γ2, α5β3γ2 and α6β3γ2 receptor subtypes were expressed in this system. 48 h post transfection, the cells were harvested and washed three times with cold PBS and frozen at − 80 °C.
Non-specific binding was determined in the presence of 10 μM diazepam.

Neuropeptide Y2 = tested on: T4, Neuropeptide Y2; experiment: Cerep binding; parameters: species or system human; conditions: 10 μM; [125I]peptide YY; hum., KAN-TS cells
T4 construct: purchased Eurofins Cerep

[3] = Pharmacokinetics, single oral dosing; type: in vivo; conditions: plasma; for Tmax: read-out: Tmax (range)
Description: as §1, §2

Muscarinic M2 = tested on: T5, Muscarinic M2; experiment: Cerep binding; parameters: species or system human; conditions: 10 μM; [3H]AF-DX 384; hum. recomb. (CHO)
T5 construct: host or cells: CHO

[4] = tested on: T6, Vasoactive intestinal peptide VPAC1 (VIP1); experiment: Cerep binding; parameters: species or system human; conditions: 10 μM; [125I]VIP; hum. recomb. (CHO)
T6 construct: host or cells: CHO

[5] = Plasma concentration in PET study; type: in vivo; conditions: human
Description: The study was single-blind, i.e., subjects were blinded to dose. Blood sampling was performed at four different timepoints starting 30 min before the post dose PET scan.

Bombesin (non-selective) = experiment: Cerep binding; conditions: 10 μM; [125I][Tyr4]bombesin; rat cerebral cortex
Vasopressin V1A = tested on: T7, Vasopressin V1A; experiment: Cerep binding; parameters: species or system human; conditions: 10 μM; [3H]AVP; hum. recomb. (CHO)
T7 construct: host or cells: CHO

Galanin 1 = tested on: T8, Galanin 1; experiment: Cerep binding; parameters: species or system human; conditions: 10 μM; [125I]galanin; hum. recomb. (HEK-293)
T8 construct: purchased Eurofins Cerep

Angiotensin AT2 = tested on: T9, Angiotensin AT2; experiment: Cerep binding; parameters: species or system human; conditions: 10 μM; [125I]CGP 42112A; hum. recomb. (CHO)
T9 construct: purchased Eurofins Cerep

[6] = tested on: healthy male and female volunteers; experiment: Study WP29402 drug-drug interaction with itraconazole; type: in vivo, human
Text: 3) Study WP29402 Drug-Drug Interaction (DDI) Itraconazole in Healthy Volunteers This was an open-label, three treatment, fixed sequence crossover study to investigate the […]
healthy male and female volunteers (age range 18-60 years; n: 12). As systemic basmisanil exposure was predicted to be higher than exposures achiev ed in previous clinical studies, regular EEG examinations were included and reviewed by a neurologist. Multiple oral doses […]
with the CYP3A inhibitor, itraconazole (200 m g OD).
Baseline EEG assessments were performed prior to the study (resting EEG eyes open/closed, intermittent photic stimulation, hyperventilation). On treatment days (1, 3, 5, 8) […]
hours and resting EEG eyes open/closed w ere performed. […]
administered with itraconazole.

Histamine H2 = tested on: T10, Histamine H2; experiment: Cerep binding; parameters: species or system human; conditions: 10 μM; [125I]APT; hum. recomb. (CHO)
T10 construct: host or cells: CHO

[7] = Beagle, dog, 4 mg/kg oral, capsule, n = 3 male, ± standard deviation
[8] = C57/Bl6, mouse, 4 mg/kg oral, microsuspension, n = 2 male
[9] = Wistar, rat, 9 mg/kg oral, microsuspension, n = 2 male
[10] = 240 mg BID with itraconazole 200 mg OD versus alone

Chain of human GABAA α5β3γ2 (P31644 32-462): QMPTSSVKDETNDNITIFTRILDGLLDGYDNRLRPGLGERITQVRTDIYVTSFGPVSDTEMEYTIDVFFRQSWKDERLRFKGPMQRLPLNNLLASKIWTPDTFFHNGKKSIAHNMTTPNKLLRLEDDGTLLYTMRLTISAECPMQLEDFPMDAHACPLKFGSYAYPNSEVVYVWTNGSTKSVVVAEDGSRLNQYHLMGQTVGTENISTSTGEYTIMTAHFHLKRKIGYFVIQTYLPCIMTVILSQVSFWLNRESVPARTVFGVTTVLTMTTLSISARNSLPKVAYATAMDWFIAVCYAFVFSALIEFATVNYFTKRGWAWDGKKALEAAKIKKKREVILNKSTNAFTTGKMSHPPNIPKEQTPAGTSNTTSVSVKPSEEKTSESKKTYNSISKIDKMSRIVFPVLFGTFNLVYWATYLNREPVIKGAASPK
Chain of human GABAA α5β3γ2 (P28472 26-473 partner): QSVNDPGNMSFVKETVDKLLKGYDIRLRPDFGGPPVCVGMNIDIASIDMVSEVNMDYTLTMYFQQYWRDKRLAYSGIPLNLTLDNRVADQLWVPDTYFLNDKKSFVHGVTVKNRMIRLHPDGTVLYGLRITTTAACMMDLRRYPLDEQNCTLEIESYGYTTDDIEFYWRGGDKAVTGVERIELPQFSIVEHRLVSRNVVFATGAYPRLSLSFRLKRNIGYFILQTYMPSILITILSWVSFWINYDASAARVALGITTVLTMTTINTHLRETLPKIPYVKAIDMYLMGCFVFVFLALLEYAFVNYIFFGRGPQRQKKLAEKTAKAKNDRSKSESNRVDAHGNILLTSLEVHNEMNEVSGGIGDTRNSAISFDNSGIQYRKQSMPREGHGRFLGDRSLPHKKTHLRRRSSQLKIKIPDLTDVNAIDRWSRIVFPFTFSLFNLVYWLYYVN
Chain of human GABAA α5β3γ2 (P18507 40-475): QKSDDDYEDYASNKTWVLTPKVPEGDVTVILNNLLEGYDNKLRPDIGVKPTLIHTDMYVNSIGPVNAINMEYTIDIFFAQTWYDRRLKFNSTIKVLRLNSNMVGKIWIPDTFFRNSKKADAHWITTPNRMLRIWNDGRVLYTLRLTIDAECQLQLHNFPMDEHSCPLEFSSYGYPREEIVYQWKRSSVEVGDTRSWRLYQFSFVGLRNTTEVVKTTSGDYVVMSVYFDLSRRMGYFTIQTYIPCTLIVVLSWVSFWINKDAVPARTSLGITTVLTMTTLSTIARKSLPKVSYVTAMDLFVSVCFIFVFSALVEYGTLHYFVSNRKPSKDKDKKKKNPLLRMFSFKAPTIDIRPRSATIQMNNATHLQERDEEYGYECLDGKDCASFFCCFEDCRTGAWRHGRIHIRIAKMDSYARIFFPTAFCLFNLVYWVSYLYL

## Cc1onc(-c2ccc(F)cc2)c1COc1ccc(C(=O)N2CCS(=O)(=O)CC2)cn1 [basmisanil]
GABAA-α5 receptors; 3 mg/kg p.o.
  estimated receptor occupancy: about 30%
GABAA-α5 receptors; 10 mg/kg p.o.
  estimated receptor occupancy: around 50%
[1]; n=3
  half-life: 4.5 ± 1.8 h
[1]; n=3, read-out: Total CL
  clearance: 3 ± 0.7 mL/min/kg
[1]; n=3, read-out: Vss
  Vd: 0.9 ± 0.6 L/kg
rats
  convulsions and EEG alterations: no convulsions and no EEG alterations
Dopamine D1
  % Inhibition: 0%
[2]
  bioavailability: 48%
[2]; median, read-out: Tmax (range)
  Tmax: 1.5 h
[2]; ± standard deviation
  AUC(0-t): 27500 ng·h/mL
  Cmax: 3650 ± 110 ng/mL
Opioid μ
  % Inhibition: 3%
Healthy subjects; PET and EEG studies
  safety and tolerability: safe and well tolerated
Healthy subjects; any cohort
  adverse events: no severe adverse events
Endothelin ETA
  % Inhibition: 8%
Human GABAA α5β3γ2
  Ki: 5 nM and 5.1 nM
Neuropeptide Y2
  % Inhibition: 7%
[3]; Beagle, dog, 4 mg/kg oral, capsule, n = 3 male
  bioavailability: 61%
[3]; Beagle, dog, 4 mg/kg oral, capsule, n = 3 male, median
  Tmax: 1.5 h
[3]; [7]
  AUC(0-t): 10600 ng·h/mL
  Cmax: 788 ± 275 ng/mL
[3]; [8]
  AUC(0-t): 455 ng·h/mL
  Cmax: 520 ng/mL
  bioavailability: 25%
  Tmax: 0.3 h
[3]; [9]
  AUC(0-t): 1100 ng·h/mL
  Cmax: 400 ng/mL
  bioavailability: 41%
  Tmax: 0.5 h
Muscarinic M2
  % Inhibition: 13%
[4]
  % Inhibition: 0%
[5]; subject 11010, 40 mg, 3.75 h prior to scan
  concentration at 3.75 h: 592 ng/mL
[5]; subject 11020, 160 mg, 3.12 h prior to scan
  concentration at 3.12 h: 2280 ng/mL
[5]; subject 11021, 160 mg, 3.00 h prior to scan
  concentration at 3 h: 2550 ng/mL
[5]; subject 13010, 40 mg, 2.63 h prior to scan
  concentration at 2.63 h: 422 ng/mL
[5]; subject 13030, 1000 mg, 4.75 h prior to scan
  concentration at 4.75 h: 2200 ng/mL
[5]; subject 13031, 1000 mg, 4.77 h prior to scan
  concentration at 4.77 h: 3350 ng/mL
[5]; subject 13040, 20 mg, 1.48 h prior to scan
  concentration at 1.48 h: 111 ng/mL
[5]; subject 13041, 20 mg, 2.20 h prior to scan
  concentration at 2.2 h: 398 ng/mL
[5]; subject 13050, 80 mg, 2.43 h prior to scan
  concentration at 2.43 h: 1000 ng/mL
Bombesin (non-selective)
  % Inhibition: -24%
Vasopressin V1A
  % Inhibition: 13%
Galanin 1
  % Inhibition: 0%
Angiotensin AT2
  % Inhibition: -3%
[6]; 240 mg BID alone
  maximum plasma concentration: 3510 ng/mL
[6]; 240 mg BID co-administered with itraconazole 200 mg OD
  maximum plasma concentration: 14500 ng/mL
[6]; [10]
  increase in maximum plasma concentration: 312%
  increase in systemic exposure at steady state: 374%
[6]; DDI study, n = 12
  maximum plasma concentration: approximately 14,500 ng/mL
[6]; co-administered with itraconazole
  EEG findings: no epileptiform discharges
Histamine H2
  % Inhibition: 8%
